Values belong to the molecule of their own block, whether it stands above or below them.
Key:
RPE [1] = test: pAlu-induced RPE degeneration in wild-type mice, inhibitors given intravitreously; format: in vivo; details: WT mice, subretinal pAlu, inhibitor intravitreous, fundus photographs and ZO-1 flat mounts
Description: (§1) Subretinal injection and imaging. Subretinal injections (1 μL) were performed using a Pico-Injector (PLI-100, Harvard Apparatus). Plasmids were transfected in vivo using 10% Neuroporter (Genlantis). Fundus imaging was performed on a TRC-50 IX camera (Topcon) linked to a digital imaging system (Sony). RPE flat mounts were immunolabeled using antibodies against zonula occludens-1 (Invitrogen).
Retinal photographs of dilated mouse eyes were taken with a TRC-50 IX camera (Topcon) linked to a digital imaging system (Sony).
Human eyes fixed in 2-4% paraformaldehyde were prepared as eyecups, cryoprotected in 30% sucrose, embedded in optimal cutting temperature compound (Tissue-Tek OCT; Sakura Finetek), and cryosectioned into 10 μm sections. Depigmentation was achieved using 0.25% potassium permanganate and 0.1% oxalic acid. Immunohistochemical staining was performed with the rabbit antibody against NLRP3 (1:100, Sigma Aldrich) or rabbit antibody against Caspase-1 (prediluted, AbCam). Isotype IgG was substituted for the primary antibody to assess the specificity of the staining. Bound antibody was detected with biotin-conjugated secondary antibodies, followed by incubation with ABC reagent and visualized by Vector Blue (Vector Laboratories). Levamisole (Vector Laboratories) was used to block endogenous alkaline phosphatase activity. Slides were washed in PBS, counterstained with neutral red (Fisher Scientific), rinsed with deionized water, air dried, and then mounted in Vectamount (Vector Laboratories). Fluorescent labeling of human tissue was performed with the rabbit antibody against PYCARD (1:50, Clone N-15, Santa Cruz Biotechnology) Immunolabeling was visualized by fluorescently conjugated anti-rabbit secondary antibody (Invitrogen). Tissue autofluorescence was quenched by incubating the sections in 0.3% Sudan black (Fisher Scientific). Sections were mounted in Vectashield with DAPI (Vector Laboratories). Mouse RPE/choroid flat mounts were fixed with 4% paraformaldehyde or 100% methanol, stained with rabbit antibodies against human zonula occludens-1 (1:100, Invitrogen) and visualized with Alexa594 (Invitrogen). All images were obtained using the Leica SP-5 or Zeiss Axio Observer Z1 microscopes.
(§2) Subretinal injections (1 μL) in mice were performed using a Pico-Injector (PLI-100, Harvard Apparatus). In vivo transfection of plasmids coding for two different Alu sequences (pAlu) or empty control vector (pNull) (Bennett et al., 2008; Kaneko et al., 2011; Shaikh et al., 1997) was achieved using 10% Neuroporter (Genlantis). AAV1-BEST1-Cre (Alexander and Hauswirth, 2008) or AAV1-BEST1-GFP were injected at 1.0×10^11 pfu/mL and in vitro transcribed Alu RNA was injected at 0.3 mg/mL.
siRNAs formulated in siRNA buffer (20 mM KCL, 0.2 mM MgCl2 in HEPES buffer at pH 7.5; Dharmacon) or phosphate buffered saline (PBS; Sigma-Aldrich); the TLR4 antagonist Ultra Pure Rhodobacter sphaeroides LPS (LPS-RS, InvivoGen), a peptide inhibitor of MyD88 homodimerization IMG-2005 (IMGENEX), control inhibitor (IMGENEX), recombinant IL-18 (Medical & Biological Laboratories), neutralizing rat antibodies against mouse IL-1β (IMGENEX), neutralizing rat antibodies against mouse IL-18 (Medical & Biological Laboratories), isotype control IgGs (R&D Systems or eBioscience as appropriate), Caspase-1 inhibitor Z-WEHD-FMK (R&D Systems), Caspase control inhibitor Z-FA-FMK (R&D Systems), DPI (Enzo Life Sciences), Mito-TEMPO (Enzo Life Sciences), MitoQ and dTPP (both adsorbed to cyclodextrin and provided by M.P. Murphy, MRC Mitochondrial Biology Unit), and gp91ds-tat and scrambled gp91 ds-tat (both Anaspec), were dissolved in phosphate buffered saline (PBS; Sigma-Aldrich) or dimethyl sulfoxide (DMSO; Sigma-Aldrich), and injected into the vitreous humor in a total volume of 1 μL with a 33-gauge Exmire microsyringe (Ito Corporation). […] As a control, Luc siRNA-chol (17+2 nt) was used with identical dosages. […]

MyD88 = MyD88 knockdown in mouse RPE cells; format: cell-based; details: compared to control siRNA
Description: Total RNA was extracted from tissues or cells using Trizol reagent (Invitrogen) according to manufacturer's recommendations, DNase treated and reverse transcribed (QuantiTect, Qiagen). The RT products (cDNA) were amplified by real-time quantitative PCR (Applied Biosystems 7900 HT Fast Real-Time PCR system) with Power SYBR green Master Mix. […] For negative controls, no RT products were used as templates in the QPCR and verified by the absence of gel-detected bands. Relative expressions of target genes were determined by the 2^−ΔΔCt method.
Tissues or cells were homogenized in lysis buffer (10 mM Tris base, pH 7.4, 150 mM NaCl, 1 mM EDTA, 1 mM EGTA, 1% Triton X-100, 0.5% NP-40, protease and phosphatase inhibitor cocktail (Roche)). Protein concentrations were determined using a Bradford assay kit (Bio-Rad) with bovine serum albumin as a standard. […] Protein loading was assessed by immunoblotting using an anti-Vinculin antibody (1:1,000; Sigma-Aldrich). […]

phagosomal ROS = test: Phagosomal ROS in human RPE cells (Fc OXYBURST Green); format: cell-based
Description: Cellular ROS production was assessed using the ROS-specific probe 2′7′-dichlorodihydrofluorescin diacetate (H2DCFDA, BioChemica, Fluka). Mitochondrial ROS production was assessed using MitoSOX™ Red (Invitrogen). Sub-confluent human RPE cells were transfected with pNull or pAlu. After 24 h cells were loaded for 10 min at 37° C. with 10 μM H2DCFDA or MitoSOX™ Red (Invitrogen) mitochondrial superoxide indicator for live-cell imaging and washed twice with PBS. For H2DCFDA, fluorescence was recorded in 96-well plate using with a Synergy 4 reader (Biotek) using a FITC filter (excitation 485 nm, emission 538 nm). To visualize respiring mitochondria for colocalization with the mitochondrial ROS signal, after PBS wash cells were incubated with MitoTracker Deep Red™ (Invitrogen) for 30 min at 37° C. and then washed twice with PBS. The fluorescent signals were detected using Leica SP-5 or Zeiss Axio Observer Z1 microscopes. Phagosomal ROS production was assessed using the Fc-OXYBURST Green™ assay (Invitrogen). Sub-confluent human RPE cells were transfected with pNull or pAlu, or treated with PMA (0.5 μg/ml; Sigma-Aldrich). […] The total fluorescence from the cells was measured immediately after adding Fc-OXYBURST Green™ with a Synergy 4 reader (Biotek) using FITC filter (excitation 485 nm, emission 538 nm).

RPE [2] = test: RPE degeneration after subretinal delivery in mice (wild-type and deficient strains); format: in vivo
Description: as §1
All animal experiments were approved by institutional review committees and in accordance with the Association for Research in Vision and Ophthalmology Statement for the Use of Animals in Ophthalmic and Visual Research. Wild-type C57BL/6J, Cybb^−/−, Tlr3^−1−, Tlr4^−/− (C57BL/10ScNJ), Trif^−/− (Ticam1^Lps2), Ifng^−/−, Ifngr1^−/−, Il1r1^−1−, Il18r1^−1−, Myd88^f/f, and Dicer1^f/f mice were purchased from The Jackson Laboratory. Casp1^−1−, Nbp3^−/−, and Pycard^−/− mice have been previously described (Kanneganti et al., 2006). Unc93b1 mutant mice were generously provided by B. A. Beutler via K. Fitzgerald. Myd88^−/− and Tlr7^−/− mice were generously provided by S. Akira via T. Hawn and D. T. Golenbock. Mda5^−/− mice were generously provided by M. Colonna. […] Mavs^−/− mice were generously provided by Z. Chen via K. Fitzgerald. For all procedures, anesthesia was achieved by intraperitoneal injection of 100 mg/kg ketamine hydrochloride (Ft. Dodge Animal Health) and 10 mg/kg xylazine (Phoenix Scientific), and pupils were dilated with topical 1% tropicamide (Alcon Laboratories).
as §2
Bone marrow transplantation was used to create Myd88^−/− chimera mice wherein the genetic deficiency of Myd88 was confined to either circulating cells (Myd88^−/− →WT) or nonhematopoietic tissue (WT→Myd88^−/−). Briefly, bone marrows were collected from femur and tibia of congenic WT or Myd88^−/− donor mice by flushing with RPMI1640. After two washing steps, cells were resuspended in RPMI1640. 1×10^7 cells in 150 μL of RPMI1640 were injected into the tail vein of irradiated […] mice. Two chimera groups were generated: WT→Myd88^−/− (WT cells into Myd88^−/− mice) and Myd88→WT (Myd88 cells into WT mice). 2 months after bone marrow transfer, mice were injected subretinally with Alu RNA, vehicle, pAlu, or pNull, and monitored for RPE degeneration 7 days later. […]

Caspase-8 = Caspase-8 activation in the RPE of wild-type mice (fluorometric assay); format: in vivo; details: subretinal injection
Description: RPE tissues were homogenized in lysis buffer (10 mM Tris base, pH 7.4, 150 mM NaCl, 1 mM EDTA, 1 mM EGTA, 1% Triton X-100, 0.5% NP-40, protease and phosphatase inhibitor cocktail (Roche)). Protein concentrations were determined using a Bradford assay kit (Bio-Rad) with bovine serum albumin as a standard. The […] activity was measured using Caspase-8 Fluorimetric Assay (R&D) in according to the manufacturer's instructions.

Molecule: 5′-CAGAGCAAGGAAUGUGAdTdT-3′ [cholesterol-conjugated Myd88 siRNA]
pAlu-induced RPE degeneration (RPE [1]): inhibited
pAlu-induced RPE degeneration (RPE [1]; listed as MyD88-targeting short interfering RNA): inhibited RPE degeneration
target gene and protein abundance (MyD88) (MyD88): reduces

Molecule: CCCCCCCCCCCCCC(=O)O[C@@H]1[C@@H](C)[C@@]2(O)[C@@H](C=C(CO)C[C@]3(O)C(=O)C(C)=C[C@@H]23)[C@@H]2C(C)(C)[C@]12OC(C)=O [PMA, phorbol myristate acetate]
phagosomal ROS (phagosomal ROS): induced phagosomal ROS

activation of Caspase-8 (Caspase-8; listed as IL-18): induced activation of caspase-8
activation of Caspase-8 (Caspase-8; listed as recombinant IL-18): induced activation of Caspase-8
Molecule: Recombinant IL-18: recombinant IL-18 (Medical & Biological Laboratories)
RPE degeneration after subretinal delivery (RPE [2]; CD95−/− (Fas lpr) mice): did not induce RPE degeneration
RPE degeneration after subretinal delivery (RPE [2]; Casp1−/− mice): induced RPE degeneration
RPE degeneration after subretinal delivery (RPE [2]; Faslg−/− (Fasl gld) mice): did not induce RPE degeneration
RPE degeneration after subretinal delivery (RPE [2]; WT mice): induced RPE degeneration

From patent US9453226B2, “Protection of cells from Alu-RNA-induced degeneration and inhibitors for protecting cells” (UNIVERSITY OF KENTUCKY RESEARCH FOUNDATION, priority 2011, dated 2016)
